Data reported in ChEMBL document CHEMBL1201862, “PubChem BioAssay data set” (2004).
Active and inactive are the calls of the source.

Legend:
Protein skinhead-1 = biological target: T1, Protein skinhead-1 (Caenorhabditis elegans, UniProt P34707); type: functional
T1 sequence (P34707 whole entry): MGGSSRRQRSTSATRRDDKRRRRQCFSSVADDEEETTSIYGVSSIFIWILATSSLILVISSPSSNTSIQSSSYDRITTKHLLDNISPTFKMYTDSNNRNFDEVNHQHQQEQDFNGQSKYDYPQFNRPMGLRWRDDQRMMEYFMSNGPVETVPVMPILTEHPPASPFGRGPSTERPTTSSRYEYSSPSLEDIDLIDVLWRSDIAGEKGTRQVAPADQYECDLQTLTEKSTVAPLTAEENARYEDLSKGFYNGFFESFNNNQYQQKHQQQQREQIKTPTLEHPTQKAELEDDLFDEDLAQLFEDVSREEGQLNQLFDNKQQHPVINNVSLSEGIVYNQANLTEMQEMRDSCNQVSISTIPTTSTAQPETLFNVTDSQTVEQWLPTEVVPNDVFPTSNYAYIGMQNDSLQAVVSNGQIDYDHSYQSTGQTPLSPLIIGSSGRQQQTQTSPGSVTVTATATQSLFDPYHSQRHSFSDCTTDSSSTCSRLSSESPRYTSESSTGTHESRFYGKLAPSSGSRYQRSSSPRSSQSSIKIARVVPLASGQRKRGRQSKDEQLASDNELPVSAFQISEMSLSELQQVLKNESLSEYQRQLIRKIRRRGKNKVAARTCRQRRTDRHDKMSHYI

[1] = biological target: T2, Adenosylmethionine-8-amino-7-oxononanoate aminotransferase (Mycobacterium tuberculosis, UniProt P9WQ81); assay: Mycobacterium tuberculosis BioA enzyme inhibitor Measured in Biochemical System Using Plate Reader - 2163-02_Inhibitor_Dose_CherryPick_Activity.; type: functional, Mycobacterium tuberculosis UT205
T2 sequence (P9WQ81 whole entry): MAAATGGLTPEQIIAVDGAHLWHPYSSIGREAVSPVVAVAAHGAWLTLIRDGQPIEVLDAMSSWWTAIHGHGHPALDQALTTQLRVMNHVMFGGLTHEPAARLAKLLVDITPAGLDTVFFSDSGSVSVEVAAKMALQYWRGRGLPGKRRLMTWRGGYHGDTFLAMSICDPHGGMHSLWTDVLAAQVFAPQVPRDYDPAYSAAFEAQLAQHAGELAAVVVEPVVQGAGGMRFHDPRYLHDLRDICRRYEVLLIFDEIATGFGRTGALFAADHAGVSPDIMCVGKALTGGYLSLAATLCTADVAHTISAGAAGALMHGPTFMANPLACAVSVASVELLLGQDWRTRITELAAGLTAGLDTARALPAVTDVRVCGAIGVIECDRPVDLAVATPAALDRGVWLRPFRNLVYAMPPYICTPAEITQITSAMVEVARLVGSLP

Beta-galactosidase [2] = biological target: T3, Beta-galactosidase (Escherichia coli, UniProt Q8VNN2); assay: Dose response counterscreen for EBI2 assay utilizing the enzyme, b-galactosidase.; type: functional
[3] = biological target: T4, Ubiquitin-conjugating enzyme E2 N (Homo sapiens, UniProt P61088); type: functional;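 note: Dose-response confirmation in a TR-FRET assay detecting UBC13-driven polyubiquitin chain formation, inhibition measured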
T4 sequence (P61088 whole entry): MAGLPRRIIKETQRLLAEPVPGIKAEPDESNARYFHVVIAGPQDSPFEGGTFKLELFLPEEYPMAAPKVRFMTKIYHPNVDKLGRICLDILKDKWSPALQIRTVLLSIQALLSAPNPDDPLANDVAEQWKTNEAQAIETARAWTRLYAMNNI

[4] = biological target: T5, DNA repair and recombination protein RAD54-like (Homo sapiens, UniProt Q92698); assay: RAD54 Holliday junction migration blockers – biochemical, fluorescence, cherry-picked samples, dose series, confirmation (AID 651657); type: functional
T5 sequence (Q92698 whole entry): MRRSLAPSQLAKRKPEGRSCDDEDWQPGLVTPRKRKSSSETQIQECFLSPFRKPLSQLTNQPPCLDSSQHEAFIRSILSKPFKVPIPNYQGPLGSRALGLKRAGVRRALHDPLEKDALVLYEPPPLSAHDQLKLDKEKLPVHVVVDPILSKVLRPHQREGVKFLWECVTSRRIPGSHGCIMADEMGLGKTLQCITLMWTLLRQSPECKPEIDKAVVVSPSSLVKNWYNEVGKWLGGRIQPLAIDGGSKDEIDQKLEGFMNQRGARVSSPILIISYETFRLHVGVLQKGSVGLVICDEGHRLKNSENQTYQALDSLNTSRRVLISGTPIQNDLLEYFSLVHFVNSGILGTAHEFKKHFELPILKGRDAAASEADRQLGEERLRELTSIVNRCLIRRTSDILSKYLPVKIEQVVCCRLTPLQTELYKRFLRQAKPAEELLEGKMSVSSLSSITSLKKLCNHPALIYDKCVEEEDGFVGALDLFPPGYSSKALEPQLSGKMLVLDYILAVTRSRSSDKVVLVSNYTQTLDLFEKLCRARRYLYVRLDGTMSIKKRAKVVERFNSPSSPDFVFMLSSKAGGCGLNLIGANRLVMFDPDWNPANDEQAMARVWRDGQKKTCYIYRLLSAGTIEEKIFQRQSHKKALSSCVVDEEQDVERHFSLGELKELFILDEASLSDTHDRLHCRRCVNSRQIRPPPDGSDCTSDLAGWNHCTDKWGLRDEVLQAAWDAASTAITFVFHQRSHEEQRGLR

[5] = biological target: T6, Corticotropin-releasing factor receptor 2/Corticotropin-releasing factor-binding protein (Homo sapiens, UniProt P24387+Q13324); assay: activators of CRF receptor 2 with binding protein – uHTS hits, confirmation (AID 602473); type: functional; conditions: read-out: EC50_Mean
T6 sequence (Q13324 whole entry): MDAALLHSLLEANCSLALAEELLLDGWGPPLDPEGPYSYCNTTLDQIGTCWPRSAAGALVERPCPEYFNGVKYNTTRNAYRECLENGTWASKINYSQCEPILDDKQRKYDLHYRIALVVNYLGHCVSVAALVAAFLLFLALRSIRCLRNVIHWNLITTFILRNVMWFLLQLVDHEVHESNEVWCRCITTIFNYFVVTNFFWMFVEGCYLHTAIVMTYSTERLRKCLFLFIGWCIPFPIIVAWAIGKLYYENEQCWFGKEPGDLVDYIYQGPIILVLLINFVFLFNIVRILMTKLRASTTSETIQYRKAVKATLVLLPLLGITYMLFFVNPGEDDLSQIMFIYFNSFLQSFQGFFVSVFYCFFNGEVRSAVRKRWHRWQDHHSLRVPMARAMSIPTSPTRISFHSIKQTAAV
T6 sequence (P24387 whole entry): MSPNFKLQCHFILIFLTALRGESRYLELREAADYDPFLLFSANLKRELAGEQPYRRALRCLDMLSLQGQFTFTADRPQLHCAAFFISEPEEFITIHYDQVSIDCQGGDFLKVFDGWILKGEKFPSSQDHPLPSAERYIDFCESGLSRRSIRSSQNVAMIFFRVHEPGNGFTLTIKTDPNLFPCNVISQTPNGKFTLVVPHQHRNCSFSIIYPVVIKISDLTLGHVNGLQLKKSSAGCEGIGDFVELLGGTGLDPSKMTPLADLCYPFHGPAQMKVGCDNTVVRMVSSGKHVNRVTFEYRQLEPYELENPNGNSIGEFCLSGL

Paired box protein Pax-8 = Paired box protein Pax-8 (Homo sapiens, UniProt Q06710); assay: PAX8 transcriptional activity inhibition in RMG-I – RMG-I cells, luciferase, cherry-pick, dose response (AID 687027); type: functional, cell-based;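 note: luciferase reporter driven by Pax8 target thyroperoxidase promoter measured by SteadyGlo luminescence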
[6] = non-specific 3'UTR reporter inhibition in Clone20-Shn3RL – cell-based, Renilla luciferase, cherry-picked, counter-screen for Shn3 inhibitor project, dose response (AID 624133); type: functional
HEK293 = assay: EBV LMP1 TES2 canonical NF-kB signalling blockers – cell-based, HEK293, luciferase, cherry-pick, dose response (AID 588343); type: functional; conditions: Homo sapiens
[7] = reduction of Shn3 3'UTR-driven luciferase in osteoblasts – cell-based, Clone20 osteoblasts, firefly luciferase, cherry-picked, dose response (AID 624132); type: functional;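 note: firefly luciferase luminescence from reporter carrying the Shn3 3'UTR in osteoblasts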
[8] = biological target: T7, DNA repair protein RAD52 homolog (Homo sapiens, UniProt P43351); type: functional, biochemical
T7 sequence (P43351 whole entry): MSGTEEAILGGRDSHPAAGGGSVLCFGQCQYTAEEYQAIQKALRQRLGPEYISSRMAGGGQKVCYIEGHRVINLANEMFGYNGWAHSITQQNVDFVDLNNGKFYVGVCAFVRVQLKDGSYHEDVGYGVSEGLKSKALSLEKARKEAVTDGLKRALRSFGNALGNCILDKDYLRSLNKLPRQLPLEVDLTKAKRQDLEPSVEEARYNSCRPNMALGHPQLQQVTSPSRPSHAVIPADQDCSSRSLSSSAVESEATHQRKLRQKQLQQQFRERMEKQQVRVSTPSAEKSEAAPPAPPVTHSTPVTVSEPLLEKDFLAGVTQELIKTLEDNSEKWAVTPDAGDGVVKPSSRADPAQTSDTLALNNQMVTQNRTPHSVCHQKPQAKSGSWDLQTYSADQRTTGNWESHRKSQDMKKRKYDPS

Genome polyprotein = Genome polyprotein (dengue virus type 2, UniProt P29990); assay: flavivirus cap methylation enzyme inhibition – biochemical, confirmation dose response, primary screen (AID 588689); type: functional
[9] = biological target: T8, Low molecular weight phosphotyrosine protein phosphatase (Homo sapiens, UniProt P24666); type: functional; conditions: read-out: IC50_Mean;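 note: Dose-response confirmation assay measuring inhibition of LMPTP enzyme activity by fluorescence intensity read-out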
T8 sequence (P24666 whole entry): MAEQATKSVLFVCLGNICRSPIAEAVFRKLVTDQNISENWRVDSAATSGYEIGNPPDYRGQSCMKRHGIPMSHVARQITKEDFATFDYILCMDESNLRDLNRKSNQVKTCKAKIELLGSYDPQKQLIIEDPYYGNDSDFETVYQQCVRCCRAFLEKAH

[10] = viability of uninfected HEp-2 cells – cell-based, HTS, cytotoxicity control for RSV inhibitor project, dose response (AID 2410); type: functional; conditions: human respiratory syncytial virus
Beta-galactosidase [11] = biological target: T3, Beta-galactosidase; assay: PubChem AID 485352; type: functional
[12] = biological target: T9, Type-1 angiotensin II receptor (Homo sapiens, UniProt P30556); assay: antagonism of angiotensin II type 1 receptor – cell-based, uHTS hits, selectivity assay for APJ receptor antagonist project, dose response (AID 463214); type: functional;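 note: antagonist potency against angiotensin II stimulated AT1 response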
T9 sequence (P30556 whole entry): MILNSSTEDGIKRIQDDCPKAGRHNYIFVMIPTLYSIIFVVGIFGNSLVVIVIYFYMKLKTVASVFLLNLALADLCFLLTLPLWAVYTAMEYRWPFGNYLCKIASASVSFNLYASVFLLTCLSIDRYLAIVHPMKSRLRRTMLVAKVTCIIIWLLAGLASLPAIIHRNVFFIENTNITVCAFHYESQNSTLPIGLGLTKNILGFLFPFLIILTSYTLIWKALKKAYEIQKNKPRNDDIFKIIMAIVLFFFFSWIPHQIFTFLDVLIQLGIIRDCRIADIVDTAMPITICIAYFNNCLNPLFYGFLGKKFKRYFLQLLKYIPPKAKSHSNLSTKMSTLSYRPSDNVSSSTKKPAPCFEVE

[13] = NIH3T3 cell viability loss – ATP luminescence, mouse fibroblasts, counter-screen, dose response (AID 2010); type: functional, cell-based;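 note: cells exposed to compound for about 90 hours before reading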
[14] = Trypanosoma cruzi growth suppression in host cells – NIH3T3 host cells, beta-gal luminescence, confirmation (AID 2044); type: functional, cell-based;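 note: intracellular parasites grown in NIH/3T3 mouse fibroblasts as host cells; luminescent beta-galactosidase reporter signal from transgenic T. cruzi replicating inside host cells; inhibitors lower the luminescence signal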

T3 sequence (Q8VNN2 whole entry): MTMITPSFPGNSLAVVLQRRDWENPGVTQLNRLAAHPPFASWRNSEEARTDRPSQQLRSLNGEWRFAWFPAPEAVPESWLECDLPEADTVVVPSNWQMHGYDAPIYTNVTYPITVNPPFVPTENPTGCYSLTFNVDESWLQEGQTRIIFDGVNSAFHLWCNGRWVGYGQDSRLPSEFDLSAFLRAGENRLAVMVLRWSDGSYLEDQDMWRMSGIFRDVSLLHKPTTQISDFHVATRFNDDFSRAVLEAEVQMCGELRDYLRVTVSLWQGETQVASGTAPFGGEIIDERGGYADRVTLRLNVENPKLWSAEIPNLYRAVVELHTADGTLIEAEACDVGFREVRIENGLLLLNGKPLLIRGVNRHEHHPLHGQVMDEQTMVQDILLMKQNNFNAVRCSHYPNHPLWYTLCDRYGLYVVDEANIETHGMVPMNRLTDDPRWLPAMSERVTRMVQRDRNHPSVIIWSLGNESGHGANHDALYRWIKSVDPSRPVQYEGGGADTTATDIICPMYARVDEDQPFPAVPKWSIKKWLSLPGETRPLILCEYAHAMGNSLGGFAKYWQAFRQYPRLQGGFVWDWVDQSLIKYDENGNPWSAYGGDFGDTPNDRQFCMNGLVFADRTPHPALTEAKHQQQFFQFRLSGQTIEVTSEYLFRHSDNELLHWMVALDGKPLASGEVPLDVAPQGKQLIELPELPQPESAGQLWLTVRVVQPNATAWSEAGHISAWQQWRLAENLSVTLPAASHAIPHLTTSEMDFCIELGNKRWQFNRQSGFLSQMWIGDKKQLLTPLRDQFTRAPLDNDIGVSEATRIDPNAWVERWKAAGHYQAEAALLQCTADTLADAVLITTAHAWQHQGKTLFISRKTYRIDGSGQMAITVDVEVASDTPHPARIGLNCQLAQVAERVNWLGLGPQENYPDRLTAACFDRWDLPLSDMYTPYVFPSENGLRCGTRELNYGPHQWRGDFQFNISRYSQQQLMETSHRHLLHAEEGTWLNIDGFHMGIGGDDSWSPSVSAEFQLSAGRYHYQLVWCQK
Paired box protein Pax-8, sequence (Q06710 whole entry): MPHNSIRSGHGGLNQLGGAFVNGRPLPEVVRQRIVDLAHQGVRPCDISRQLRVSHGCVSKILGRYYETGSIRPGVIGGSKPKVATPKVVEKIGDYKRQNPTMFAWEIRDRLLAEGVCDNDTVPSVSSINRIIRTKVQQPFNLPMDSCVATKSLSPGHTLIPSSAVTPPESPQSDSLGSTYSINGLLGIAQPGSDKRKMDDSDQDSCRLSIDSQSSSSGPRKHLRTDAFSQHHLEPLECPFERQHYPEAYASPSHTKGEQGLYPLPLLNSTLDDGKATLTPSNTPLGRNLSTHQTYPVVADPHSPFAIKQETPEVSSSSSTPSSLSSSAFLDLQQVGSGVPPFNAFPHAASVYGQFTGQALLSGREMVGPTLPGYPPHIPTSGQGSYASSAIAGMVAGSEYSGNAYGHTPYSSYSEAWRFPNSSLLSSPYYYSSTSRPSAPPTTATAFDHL
Genome polyprotein, sequence (P29990 2492-3391 limits assumed): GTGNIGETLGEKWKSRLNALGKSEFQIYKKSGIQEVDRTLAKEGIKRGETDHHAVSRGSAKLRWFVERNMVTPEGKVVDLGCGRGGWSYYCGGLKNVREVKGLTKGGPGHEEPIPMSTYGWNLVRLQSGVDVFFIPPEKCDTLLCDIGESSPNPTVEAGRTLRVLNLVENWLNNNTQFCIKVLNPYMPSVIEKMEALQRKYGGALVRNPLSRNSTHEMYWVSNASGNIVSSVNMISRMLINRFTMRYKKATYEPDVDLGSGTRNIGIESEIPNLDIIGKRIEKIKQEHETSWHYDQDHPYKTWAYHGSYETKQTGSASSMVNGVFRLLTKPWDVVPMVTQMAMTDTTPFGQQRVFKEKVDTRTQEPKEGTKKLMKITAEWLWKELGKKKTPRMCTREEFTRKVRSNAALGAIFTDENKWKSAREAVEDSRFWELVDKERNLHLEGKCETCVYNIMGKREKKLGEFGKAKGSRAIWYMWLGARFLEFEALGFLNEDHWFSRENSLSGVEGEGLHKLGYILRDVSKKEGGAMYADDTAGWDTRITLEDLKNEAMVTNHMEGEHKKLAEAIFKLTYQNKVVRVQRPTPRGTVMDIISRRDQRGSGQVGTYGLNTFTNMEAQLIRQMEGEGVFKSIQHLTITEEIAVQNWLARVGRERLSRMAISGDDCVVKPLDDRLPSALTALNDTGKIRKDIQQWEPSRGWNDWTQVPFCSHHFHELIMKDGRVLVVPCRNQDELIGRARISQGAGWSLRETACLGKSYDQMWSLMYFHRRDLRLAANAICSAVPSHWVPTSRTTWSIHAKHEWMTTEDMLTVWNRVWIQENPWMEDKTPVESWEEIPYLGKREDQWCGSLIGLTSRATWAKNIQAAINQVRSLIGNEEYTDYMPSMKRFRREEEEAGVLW

Compound: NC(=O)C1CCCN(C(=O)NC2CCCCC2)C1 (centres undefined)
- IC50 (Protein skinhead-1): > 100 µM (inactive)

Compound: COc1ccccc1S(=O)(=O)N1CC[C@@H]2[C@H](CO)Nc3ccc(-c4cccc(C#N)c4)cc3[C@@H]21
- AC50 [1]: 18.5 µM (active)

Compound: O=C(c1ccc(-n2cnnn2)cc1)N1CCN(C(c2ccccc2)c2ccccc2)CC1
- IC50 (Beta-galactosidase [2]): > 80 µM (inactive)

Compound: Cc1nc2ccccc2c2oc(C(=O)N3CCC(N4CCCCC4)CC3)cc12
- IC50 [3]: > 20 µM (inactive)
- AC50 [4]: 23.1 µM (active)

Compound: C=C(C)CSc1nc(N)c2c3c(sc2n1)CCC3
- EC50 [5]: > 53 µM (inactive)
- AC50 [1]: 18.2 µM (active)

Compound: COc1ccccc1-n1cc([C@@H]2C[C@H]3CN(c4ccccc4)C(=O)[C@]34CCCN24)cn1
- AC50 (Paired box protein Pax-8): 5.21 µM (active)
- AC50 [6]: 1.8 µM (active)
- AC50 (HEK293): 19 µM (active)
- AC50 [7]: 1.46 µM (active)
- IC50 (Protein skinhead-1): > 100 µM (inactive)

Compound: CCn1c2ccccc2c2cc(/C=N/NC(=O)c3ccccc3)ccc21
- AC50 (HEK293): 3.99 µM (active)

Compound: Clc1ccc(-c2csc(-c3ccncc3)n2)cc1
- IC50 (Protein skinhead-1): 4.45 µM (active)

Compound: CCN1CCN(C(S)=Nc2ccc3nc(N4CCN(C)CC4)cc(C)c3c2)CC1
- AC50 [8]: 4.49 µM (active)
- AC50 [4]: 91.2 µM (active)

Compound: N#C/C(=C\c1ccc(C#N)cc1)C(=O)c1ccccc1
- IC50 (Genome polyprotein): > 100 µM (active)

Compound: Cn1c(CCN2CCN(c3ccccn3)CC2)nc2cc(NC(=O)COc3ccc([N+](=O)[O-])cc3)ccc21
- IC50 [9]: 8.47 µM (active)

Compound: O=C(Nc1ccc(F)c(F)c1)c1ccc(-n2cncn2)c([N+](=O)[O-])c1
- AC50 [1]: 1.49 µM (active)
- CC50 [10]: 18.3 µM (active)

Compound: COc1ccc(NC(=O)Nc2cccc3c2O[C@@H](CN(C)CC2CCCCC2)[C@@H](C)CN([C@H](C)CO)C3=O)cc1
- EC50 (Beta-galactosidase [11]): > 40 µM (inactive)
- IC50 [12]: > 40 µM (not active)

Compound: CC(C)(C)c1nnc(N/N=C/c2ccc(Br)cc2)n(N)c1=O
- IC50 (Beta-galactosidase [2]): > 80 µM (inactive)

Compound: O=C(COc1ccc(Br)cc1)N1CCN(C2CCCC2)CC1
- IC50 (Beta-galactosidase [2]): > 80 µM (inactive)

Compound: CC1=C(C#N)C(c2cccnc2)C2=C(O)CC(c3ccc(Cl)cc3)CC2=N1 (centres undefined)
- EC50 [13]: 21.8 µM (active)
- EC50 [14]: 2.26 µM (active)
- AC50 [1]: 0.67 µM (active)

Compound: Cc1ccc(/C=C/c2ccc3cccc(O)c3n2)s1
- IC50 (Protein skinhead-1): > 100 µM (inactive)

Compound: S=C(N/N=C/c1ccccc1)N1CCOCC1
- EC50 (Beta-galactosidase [11]): > 40 µM (inactive)
- IC50 [12]: 13.3 µM (active)

Compound: O=C(CN1CCCCC1)n1c2ccccc2c2ccccc21
- AC50 [8]: 5.64 µM (active)
- AC50 [4]: 12.1 µM (active)

Compound: O=C1OCC(CO)(CO)N=C1NNc1cc(Cl)ccc1Cl
- EC50 (Beta-galactosidase [11]): > 40 µM (inactive)
- IC50 [12]: 12.1 µM (active)
